“Also recorded” adds a separate entry of the source.
How the values were obtained:
MCF-7 = assay: MTT survival assay on human breast-cancer cells MCF-7; assay type: cell-based; details: MCF-7, MTT assay, isolated compound
Excerpt: (§1) According to the present invention, the effects such as treating breast cancer, inhibiting the growth of breast cancer cell and others, of Antroquinonol B (AnQB) and/or dehydroeburicoic acid (DeHBA) may be tested by using any of the test methods used in the prior arts, for example, MTT assay of using 3-(4,5-dimethylthiazol-2-yl)-2, S-diphenyl tetrazolium bromide (MTT) to determine cell survival rates of breast cancer cell lines.
(§2) The Antroquinonol B (AnQB) and dehydroeburicoic acid (DeHBA) separately isolated from the Extraction A of Example 1 were added into the culture media of human breast-cancer cells, MCF-7 or MDA-MB-231, to test for tumor cell survival by using anti-cancer drug screen model. This survival assay was carried out with the widely known MTT (3-[4,5-dimethylthiazol-2-yl]2,5-diphenyltetrazolium bromide) assay.
(§3) MCF-7 cell line (purchased from B CRC) is originated from primary breast cancer cells (early stage), sensitive to estrogen and therefore is estrogen-dependent, while MDA-MB-231 is insensitive to estrogen and therefore is estrogen-independent, which is a difficult tumor with a low survival rate.
(§4) The human breast-cancer cells, MCF-7 and MDA-MB-231 were cultivated in media containing fetal calf serum for 36 hours. The proliferated cells were washed once with PBS, then treated with 1× trypsin-EDTA and centrifuged at 2000 rpm for 25 minutes. The supernatant was discarded and the cell pellet was re-suspended in 30 ml of fresh culture medium by gently shaking. The cells were placed in a 96-well plate.
(§5) Subsequently, the plates were read on an ELISA reader to determine the survival rates. The half maximal inhibitory concentration (IC50) values were calculated and results of ex vivo survival assay were thus obtained.
(§6) By using the same manner as the method described above, respectively human breast cancer cell line MCF-7 and MDA-MB-231 was cultured. After then, the pharmaceutical compositions A˜F of the present invention was applied separately, and then MTT assay for each sample was measured to assess the inhibition effectiveness of various cancer cell activity while using pharmaceutical compositions A˜F of the present invention.

MDA-MB-231 = assay: MTT survival assay on human breast-cancer cells MDA-MB-231; assay type: cell-based; details: MDA-MB-231, MTT assay, isolated compound
Excerpt: as §1, §2, §3, §4, §5, §6

Row | SMILES | half-maximal inhibitory concentration (IC50) (MCF-7) | survival rate of breast cancer cell line (MCF-7) | half-maximal inhibitory concentration (IC50) (MDA-MB-231) | survival rate of breast cancer cell line (MDA-MB-231)
1 | C=C(CC[C@@H](C(=O)O)[C@H]1CC[C@@]2(C)C3=CC[C@H]4C(C)(C)[C@@H](O)CC[C@]4(C)C3=CC[C@]12C)C(C)C [dehydroeburicoic acid] | relatively low | can inhibit the growth of breast cancer cell; also recorded: can decrease the survival rates | relatively low | can inhibit the growth of breast cancer cell; also recorded: can decrease the survival rates
2 | COC1=C(OC)[C@H](O)[C@H](C/C=C(\C)CC/C=C(/C)C/C=C/C(C)(C)O)[C@@H](C)C1=O [Antroquinonol B] | relatively low | can inhibit the growth of breast cancer cell; also recorded: can decrease the survival rates | relatively low | can inhibit the growth of breast cancer cell; also recorded: can decrease the survival rates

From patent US20170189416A1, “PHARMACEUTICAL COMPOSITION FOR TREATING BREAST CANCER” (MA SHEN KAI RUEi CO., LTD., priority 2015, published 2017)
